Entries after “also recorded” stand apart in the source; their conditions may differ. Marks after values point to notes of the source that are not given here.
How the values were obtained:
Type in all cases: cell-based, human
YAP [1] = experiment: Expression of YAP in HTM cells after 17-allylamino-17-demethoxygelanamycin; conditions: 25 nM
HSP90 = experiment: Amount of HSP90 in HTM cells after 17-allylamino-17-demethoxygelanamycin; conditions: 25 nM
SPARC mRNA = SPARC mRNA in HTM cells on hydrogels or TCP after Lat B
Protocol: (§1) Materials and methods similar to those in Examples 1 and 2 were used. Alternatively or additionally, at least some of the following methods were or can be used for the experiments described hereafter.
(§2) Cell Culture. Primary HTM cells is obtained from normal human donor corneoscleral rims deemed not suitable for transplant (50). HTM cells are cultured in DMEM/F12 medium with 10% fetal bovine serum. Only cells before the 7th passage are used to conduct these studies. Only normal HTM cells are used because growth of cells from glaucomatous HTM is generally not robust enough to guarantee a successful completion of the experiment (51-54). Cells are plated onto hydrogels with Young's moduli of 5 kPa (homeomimetic) or 75 kPa (pathomimetic) that are fabricated to fit in a single well of a standard 6 well culture plate with 300,000 cells per surface. The cells are allowed to attach to the surfaces for 24 hours prior to subsequent experimentation.
(§3) Fabrication of Hydrogel Substrates. Hydrogels are composed of 5.8% acrylamide/0.2% bisacrylamide (5 kPa) or 17.4% acrylamide/0.6% bisacrylamide (75 kPa). Each of the gels contains 4% (v/v) acrylamidoisopropyl trimethyl ammonium chloride. After polymerization, the gels are stored in phosphate buffered saline for two days to allow maximal swelling. One day prior to seeding of the cells on the hydrogels, culture medium with 10% fetal bovine serum is added to the gel to allow the hydrogel to be coated with the various proteins and components present in the serum. The Young's moduli of the hydrogels have been validated by atomic force microscopy (14, 55).
(§4) Real-Time PCR. Real-time PCR is conducted with 70 ng of mRNA using a StepOne PCR machine. Reverse transcription is done for 30 minutes at 50° C. and subsequent PCR is done for 40 cycles of 15 seconds at 95° C. and 1 minute at 60° C.

TAZ mRNA = experiment: qPCR for TAZ (WWTR1) mRNA in primary HTM cells after Lat-B
Protocol: (§5) Hydrogel Fabrication. Polyacrylamide hydrogels mimicking the stiffness of the normal (5 kPa) and glaucomatous (75 kPa) HTM were prepared utilizing previously described procedures (McKee et al., 2011; Wood et al., 2011b). Briefly, hydrogels were fabricated and then sterilized with ultraviolet light and rinsed every 24 hours for at least 72 hours in Dulbecco's phosphate buffered solution (DPBS, Hyclone, Logan, Utah) to fully hydrate the hydrogels and to ensure removal of monomeric acrylamide since free acrylamide has been previously shown to disrupt cytoskeletal structure (Arocena, 2006). […]
(§6) RNA Extraction and Quantitative Real-Time PCR. […] In order to control for slight variations in the amount of RNA loaded into the PCR reactions, the difference in cycle threshold (ΔCt) between the gene of interest (e.g. YAP) and the average cycle threshold (Ct) of the house keeping gene, 18S (ran in triplicate) were calculated. […] Ratios with respect to this control were calculated for all other values. The protein TAZ is encoded by the WWTR1 gene, for ease of reading, the mRNA obtained from the WWTR1 gene is designated as TAZ mRNA.

YAP [2] = experiment: YAP immunofluorescence, nuclear/cytoplasmic localization in HTM cells after Lat-B; conditions: Lat-B vs DMSO, one hour after treatment
Protocol: Fixation and Immunofluoresence. One hour after treatment with Lat-B or DMSO, the cells were rinsed twice with warm DPBS and fixed in warm DPBS with 4% paraformaldehyde (Sigma-Aldrich, St. Louis, Mo.) for 20 min. They were rinsed twice more and permeabilized in DPBS with 0.5% Triton-X100 (Sigma-Aldrich, St. Louis, Mo.). They were rinsed and stored in DPBS until staining Rabbit anti-YAP (H-125, Santa Cruz Biotechnology, Santa Cruz, Calif.) was diluted in PBS containing 0.2% A-type cold fish gelatin (Sigma-Aldrich, St. Louis, Mo.) as a blocking agent. After primary staining, cells were rinsed twice in PBS. Dylight 594-conjugated goat anti-rabbit IgG (Thermo Scientific Pierce, Rockford, Ill.) was similarly diluted. After secondary staining, the cells were again rinsed, counterstained with DAPI (Life Technologies, Carlsbad, Calif.), rinsed a final time, and stored in PBS for imaging. Cells were imaged on an Axiovert 200 M (Carl Zeiss AG, Oberkochen, Germany) inverted microscope with a 20× objective. To mitigate background signal, images were filtered with a 77.5 μm rolling ball background and local median filtering (ImageJ, NIH, Bethesda, Md.).

CTGF mRNA = experiment: qPCR for CTGF mRNA in primary HTM cells after Lat-B; conditions: stiff (75 kPa) hydrogels, 3 donors, p=0.02
Protocol: as §5, §6

YAP mRNA = experiment: Relative quantitative PCR for YAP mRNA in primary HTM cells on hydrogels or TCP after Lat-B; conditions: for Relative quantification of YAP mRNA (mean ± SEM): 2 μM Lat-B, 1 h after treatment, TCP DMSO = 1.0; for YAP mRNA expression versus DMSO: HTM 424 donor (FIG. 8)
Protocol: (§7) Hydrogel Fabrication. Polyacrylamide hydrogels mimicking the stiffness of the normal (5 kPa) and glaucomatous (75 kPa) HTM were prepared utilizing previously described procedures (McKee et al., 2011; Wood et al., 2011b). Briefly, hydrogels were fabricated and then sterilized with ultraviolet light and rinsed every 24 hours for at least 72 hours in Dulbecco's phosphate buffered solution (DPBS, Hyclone, Logan, Utah) to fully hydrate the hydrogels and to ensure removal of monomeric acrylamide since free acrylamide has been previously shown to disrupt cytoskeletal structure (Arocena, 2006). Following hydration, the hydrogels (10 mm) were adhered to TCP, stored in HTM cell medium, DME/F-12 medium containing 2.5 mM L-glutamine supplemented with 1% penicillin-streptomycin with amphotericin b (Lonza, Walkerville, Md.) and 10% fetal bovine serum (Atlanta Biologicals, Lawrence, Ga.), for 24 hrs and coated with a proprietary fibronectin/collagen (FNC) mixture (AthenaES, Baltimore, Md.) for 20 minutes. The elastic modulus of the hydrogels used were previously validated with atomic force microscopy at 4±2 kPa and 71±5 kPa for the 5 and 75 kPa gels respectively (McKee et al., 2011; Radmacher et al., 1992).
(§8) HTM Cell Isolation and Culture. Primary HTM cells were isolated from corneoscleral rims considered unsuitable for transplant from donors with no prior history of ophthalmic disease as previously described (McKee et al., 2011; Rhee et al., 2003; Wood et al., 2011b). Isolated cells were cultured in HTM cell medium and all studies were conducted using cells prior to the eighth passage. HTM cells were plated at a density of 1.5 ×105 on FNC-coated TCP and 75 kPa hydrogels and 2.5×105 on FNC-coated 5 kPa hydrogels for 24 h prior to Lat-B treatment. The 5 kPa hydrogels were plated a higher density than the other substrates because HTM cells proliferate more slowly on the 5 kPa hydrogels (Wood et al., 2011a), and to ensure that there was enough mRNA present to perform PCR.
(§9) Latrunculin-B Treatment. Lyophilized Lat-B (Cal Biochem, La Jolla, Calif.) was re-suspended to a final concentration of 2.5 mM in dimethyl sulfoxide (DMSO) (Fisher, Pittsburgh, Pa.). Fresh solutions of 2.0 μM Lat-B were prepared in serum free DPBS for all experiments. Control samples were treated with an equivalent concentration of DMSO in serum free DPBS.
(§10) RNA Extraction and Quantitative Real-Time PCR. One hour after treatment with Lat-B or DMSO, RNA was extracted using the Qiagen RNeasy kit following the manufacturer's protocol (Qiagen, Valencia, Calif.). […] The cycle threshold (Ct) ranges were 11-22 for 18S, 23-27 for YAP, 23-34 for WWTR1, 27-32 for 14-3-3σ, 21-30 for CTGF and 17-23 for PAI-1. The 18S ribosomal RNA served as a reference. […] In order to control for slight variations in the amount of RNA loaded into the PCR reactions, the difference in cycle threshold (ΔCt) between the gene of interest (e.g. YAP) and the average cycle threshold (Ct) of the house keeping gene, 18S (ran in triplicate) were calculated. By calculating the difference in ΔCt between an experimental condition and the control condition (TCP DMSO), the experimental data was normalized to the control data. Ratios with respect to this control were calculated for all other values. The protein TAZ is encoded by the WWTR1 gene, for ease of reading, the mRNA obtained from the WWTR1 gene is designated as TAZ mRNA.

PAI-1 mRNA = experiment: qPCR for PAI-1 mRNA in primary HTM cells after Lat-B; conditions: 75 kPa hydrogels, all 3 donors
Protocol: as §5, §6

14-3-3σ mRNA = experiment: Relative quantitative PCR for 14-3-3σ mRNA in primary HTM cells on hydrogels or TCP after Lat-B; conditions: for Relative quantification of 14-3-3σ mRNA (mean ± SEM): 2 μM Lat-B, 1 h after treatment, TCP DMSO = 1.0; for 14-3-3σ mRNA expression versus DMSO: HTM 424 donor (FIG. 11); for level of 14-3-3σ mRNA: Example 3 (FIG. 16)
Protocol: as §7, §8, §9, §10

myocilin (MYOC) mRNA = experiment: Myocilin mRNA in HTM cells on hydrogels or TCP after Lat B
Protocol: as §1, §2, §3, §4

[3] = homeo- and pathomimetic hydrogels, Lat B 30 minutes, seven hours recovery, listed as Lat B
[4] = homeo- and pathomimetic hydrogels, Lat B 30 minutes, seven hours recovery, listed as Latrunculin B
[5] = tissue culture plastic (GPa), after Lat B treatment
[6] = HTM cells after Lat B treatment (Example 3)

C=CCNC1=C2C[C@@H](C)C[C@H](OC)[C@H](O)[C@@H](C)/C=C(\C)[C@H](OC(N)=O)[C@@H](OC)/C=C\C=C(/C)C(=O)NC(=CC1=O)C2=O [17-allylamino-17-demethoxygelanamycin]
expression of YAP (YAP [1]): increased expression | reduction of the amount of HSP90 (HSP90): 50%

C/C1=C/C(=O)O[C@@H]2C[C@@H](CC[C@H](C)/C=C\CC1)O[C@@](O)([C@@H]1CSC(=O)N1)C2 [Lat-B, Latrunculin-B]
SPARC mRNA levels (SPARC mRNA; [3]): significantly reduced | SPARC mRNA levels (SPARC mRNA; [4]): significantly decreased | SPARC mRNA levels (SPARC mRNA; [5]): no change | decrease of TAZ mRNA levels (TAZ mRNA; [6]): 1.9 fold | TAZ mRNA versus DMSO (TAZ mRNA; stiff (75 kPa) hydrogels, 3 donors, P=0.11): trend towards less; also recorded: markedly less | YAP in the nucleus (nuclear localization) (YAP [2]; 5 kPa hydrogel): dramatic reduction | YAP nuclear localization (YAP [2]; TCP): some nuclear localization remained | CTGF mRNA expression versus DMSO (CTGF mRNA): significantly decreased; also recorded: significantly less | YAP mRNA versus DMSO (YAP mRNA; 75 kPa hydrogels, one hour after treatment, all three donors, p<0.05): significantly less | Relative quantification of YAP mRNA (mean ± SEM) (YAP mRNA; HTM 211 cells, 5 kPa hydrogel): 0.33 ± 0.01^a ^ | Relative quantification of YAP mRNA (mean ± SEM) (YAP mRNA; HTM 211 cells, 75 kPa hydrogel): 0.06 ± 0.01^b, † | Relative quantification of YAP mRNA (mean ± SEM) (YAP mRNA; HTM 211 cells, TCP (>1 GPa)): 0.48 ± 0.0^c, † | Relative quantification of YAP mRNA (mean ± SEM) (YAP mRNA; HTM 424 cells, 5 kPa hydrogel): 0.79 ± 0.06^a, † | Relative quantification of YAP mRNA (mean ± SEM) (YAP mRNA; HTM 424 cells, 75 kPa hydrogel): 0.59 ± 0.05^a, † | Relative quantification of YAP mRNA (mean ± SEM) (YAP mRNA; HTM 424 cells, TCP (>1 GPa)): 1.3 ± 0.39^a | Relative quantification of YAP mRNA (mean ± SEM) (YAP mRNA; HTM 431 cells, 5 kPa hydrogel): 1.6 ± 0.01^a, † | Relative quantification of YAP mRNA (mean ± SEM) (YAP mRNA; HTM 431 cells, 75 kPa hydrogel): 0.83 ± 0.05^b, † | Relative quantification of YAP mRNA (mean ± SEM) (YAP mRNA; HTM 431 cells, TCP (>1 GPa)): 0.55 ± 0.02^c, † | decrease of YAP mRNA levels (YAP mRNA; [6]): 1.8 fold | YAP mRNA expression versus DMSO (YAP mRNA; cells grown on TCP): did not have significantly different | YAP mRNA expression versus DMSO (YAP mRNA; cells grown on hydrogels): significantly less | PAI-1 mRNA expression versus DMSO (PAI-1 mRNA): less and decreased | Relative quantification of 14-3-3σ mRNA (mean ± SEM) (14-3-3σ mRNA; HTM 211 cells, 5 kPa hydrogel): 15 ± 0.82^a | Relative quantification of 14-3-3σ mRNA (mean ± SEM) (14-3-3σ mRNA; HTM 211 cells, 75 kPa hydrogel): 29 ± 1.8^b, † | Relative quantification of 14-3-3σ mRNA (mean ± SEM) (14-3-3σ mRNA; HTM 211 cells, TCP (>1 GPa)): 1.2 ± 0.25^c | Relative quantification of 14-3-3σ mRNA (mean ± SEM) (14-3-3σ mRNA; HTM 424 cells, 5 kPa hydrogel): 4.8 ± 0.12^a, † | Relative quantification of 14-3-3σ mRNA (mean ± SEM) (14-3-3σ mRNA; HTM 424 cells, 75 kPa hydrogel): 5.6 ± 0.51^a, † | Relative quantification of 14-3-3σ mRNA (mean ± SEM) (14-3-3σ mRNA; HTM 424 cells, TCP (>1 GPa)): 0.73 ± 0.20^b ^ | Relative quantification of 14-3-3σ mRNA (mean ± SEM) (14-3-3σ mRNA; HTM 431 cells, 5 kPa hydrogel): 1.09 ± 0.02^a ^ | Relative quantification of 14-3-3σ mRNA (mean ± SEM) (14-3-3σ mRNA; HTM 431 cells, 75 kPa hydrogel): 1.57 ± 0.11^b, † | Relative quantification of 14-3-3σ mRNA (mean ± SEM) (14-3-3σ mRNA; HTM 431 cells, TCP (>1 GPa)): 0.53 ± 0.02^c, † | 14-3-3σ mRNA expression versus DMSO (14-3-3σ mRNA; cells grown on TCP): did not have significantly different | 14-3-3σ mRNA expression versus DMSO (14-3-3σ mRNA; cells grown on hydrogels): significantly more | level of 14-3-3σ mRNA (14-3-3σ mRNA; softer (homeomimetic) hydrogels): no effect | level of 14-3-3σ mRNA (14-3-3σ mRNA; stiffer (pathomimetic) hydrogels, listed as Lat B): increased | level of 14-3-3σ mRNA (14-3-3σ mRNA; stiffer (pathomimetic) hydrogels, listed as Latrunculin B): doubled | 14-3-3σ expression versus DMSO (14-3-3σ mRNA; stiffer hydrogels, all three donors (HTM 211, 424, 431)): markedly increased | MYOC mRNA levels (myocilin (MYOC) mRNA; [3]): significantly reduced | MYOC mRNA levels (myocilin (MYOC) mRNA; [4]): significantly decreased | MYOC mRNA levels (myocilin (MYOC) mRNA; [5]): no change
